From ChEMBL document CHEMBL5727769, “Tricyclic fused derivatives of 1-(cyclo)alkyl pyridin-2-one useful for the treatment of cancer” (2020) come the findings set out here.

pIC50: −log10 of the molar value.

The target in this test is Bromodomain-containing protein 4 (Homo sapiens, UniProt O60885). As to the kind of experiment: AlphaLISA Assay: Compounds were diluted by step-down dilution method (final concentration of DMSO was 1%) and added to the wells of a 384 well opti plate at desired concentrations. 5 nM BDR4-BD1 enzyme (produced in-house) and 12 nM of biotinylated substrate were added to the wells, covered and incubated at room temperature (RT) for 1 h. At the end of 1 h 250 ng of GSH acceptor beads were added to the well and incubated for 1 h at RT; then 500 ng of streptavidin donor beads were added and incubated again for 1 h at RT. Plates were read in a Pherastar reader at 680 nm excitation and 570 nm emission. For orientation: In Alpha technology, singlet oxygen from a donor bead excites a nearby acceptor bead.

As a reminder, the pIC50 is −log10 of the IC50, conventionally taken in molar units. Consider `CCNC(=O)CC1N=C(c2ccc(Cl)cc2)c2cc(OC)ccc2-c2cn(C)c(=O)cc21` (racemic), for which the negative-log IC50 (pIC50) was 8.80.
